For the test, the system named is clot lysis (fibrinolysis) in diluted human citrated plasma, tPA-induced. In words: Plasma-based clot lysis assay (5%). Particulars: human citrated platelet-poor plasma 5%, fibrinogen 3 μM, CaCl2 10 mM, tPA 0.2 nM, 37° C., OD at 405 nm. In kind it is biochemical. As for the experimental part:
B-2. Plasma-based Clot Lysis Assay (5%)
The clot-lysis test system configures the kinetics of clot formation and degradation in vitro and allows quantifying modulation of the process by selected test compounds.
The test compounds were dissolved in 1% acetic acid and further complemented with an equal volume of DMSO. The resulting stock solutions were serially diluted in 0.5% acetic acid/50% DMSO. 1 μL aliquots of these solutions were placed into 384 well microplates (Greiner, black, transparent bottom), followed by 30 μL of diluted human citrated plasma (platelet-poor, final concentration: 5%; supplemented with fibrinogen, final concentration: 3 μM; dilution buffer: 20 mM HEPES, 150 mM NaCl, 0.01% Brij (pH 7)). The reactions were started by addition of 20 μL of CaCl2 (final concentration: 10 mM), and tPA (tissue plasminogen activator, final concentration: 0.2 nM) in dilution buffer, followed by an additional volume of 20 μL dilution buffer for improved mixing. The reactions were incubated at 37° C. […] IC50 values were determined by comparing the resulting time courses with the time course of a blank control reaction.

pIC50: −log10 of the molar value. Where a name gives a salt, the structure may show the parent alone.

For `CCC(c1ccc(OC)cc1)c1nc(-c2cnn3c(C4CCNCC4)cc(=O)[nH]c23)no1` (racemic) [Example 241, 3-{5-[rac-1-(4-methoxyphenyl)propyl]-1,2,4-oxadiazol-3-yl}-7-(piperidin-4-yl)pyrazolo[1,5-a]pyrimidin-5(4H)-one hydrochloride], the pIC50 (usually −log10 of the IC50, conventionally taken in molar units) was 7.68. The value for `CC1(c2nc(-c3cnn4c(C5CCNCC5)cc(=O)[nH]c34)no2)CC1` (racemic) [Example 381, Rac-3-[5-(1-Methylcyclopropyl)-1,2,4-oxadiazol-3-yl]-7-(piperidin-4-yl)pyrazolo[1,5-a]pyrimidin-5(4H)-one hydrochloride] was 7.54. The same measure for `CC1(c2nc(-c3cnn4c(C5CCNCC5)cc(=O)[nH]c34)no2)CCCC1` (racemic) [Example 386, Rac-3-[5-(1-Methylcyclopentyl)-1,2,4-oxadiazol-3-yl]-7-(piperidin-4-yl)pyrazolo[1,5-a]pyrimidin-5(4H)-one hydrochloride]: 7.55. With `O=c1cc(C2CCNCC2)n2ncc(-c3noc(C4CCCO4)n3)c2[nH]1` (racemic) [Example 389, Rac-7-(piperidin-4-yl)-3-(5-(tetrahydrofuran-2-yl)-1,2,4-oxadiazol-3-yl)pyrazolo[1,5-a]pyrimidin-5(4H)-one hydrochloride], the negative-log IC50 (pIC50) was 7.52. The same measure for `COCc1nn2c(C3CCNCC3)cc(=O)[nH]c2c1-c1ccc(OC)cc1` [Example 3, 2-(Methoxymethyl)-3-(4-methoxyphenyl)-7-(piperidin-4-yl)pyrazolo[1,5-a]pyrimidin-5 (4H)-one hydrochloride]: 7.48. The same measure for `O=c1cc(C2CCNCC2)n2ncc(-c3ccc(F)cc3)c2[nH]1` [Example 4, 3-(4-Fluorophenyl)-7-(piperidin-4-yl)pyrazolo[1,5-a]pyrimidin-5(4H)-one hydrochloride]: 7.40. The same measure for `O=c1cc(C2CCNCC2)n2ncc(-c3cccnc3)c2[nH]1` [Example 5, 7-(Piperidin-4-yl)-3-(pyridin-3-yl)pyrazolo[1,5-a]pyrimidin-5 (4H)-one hydrochloride]: 7.49. The molecule `Cc1nn2c(C3CCNCC3)cc(=O)[nH]c2c1C#N` [Example 8, 2-Methyl-5-oxo-7-(piperidin-4-yl)-4,5-dihydropyrazolo[1,5-a]pyrimidine-3-carbonitrile trifluoroacetate] gave a negative logarithm of the IC50 (pIC50) of 7.54.

Molecule `Cc1nn2c(C3CCNCC3)cc(=O)[nH]c2c1-c1ccc(Br)cc1` [Example 10, 3-(4-Bromophenyl)-2-methyl-7-(piperidin-4-yl)pyrazolo[1,5-a]pyrimidin-5(4H)-one hydrochloride] had a pIC50 of 6.96.

In turn, `NC(=O)c1cnn2c(C3CCNCC3)cc(=O)[nH]c12` [Example 14, 5-Oxo-7-(piperidin-4-yl)-4,5-dihydropyrazolo[1,5-a]pyrimidine-3-carboxamide hydrochloride] showed a pIC50 of 7.62. With `N#Cc1cnn2c(C3CCNCC3)cc(=O)[nH]c12` [Example 15, 5-Oxo-7-(piperidin-4-yl)-4,5-dihydropyrazolo[1,5-a]pyrimidine-3-carbonitrile], the pIC50 is 7.72. `CCOC(=O)c1cnn2c(C3CCNCC3)cc(=O)[nH]c12` [Example 16, Ethyl 5-oxo-7-(piperidin-4-yl)-4,5-dihydropyrazolo[1,5-a]pyrimidine-3-carboxylate hydrochloride]: the pIC50 was 7.96.

For `O=C(O)c1cnn2c(C3CCNCC3)cc(=O)[nH]c12` [Example 17, 5-Oxo-7-(piperidin-4-yl)-4,5-dihydropyrazolo[1,5-a]pyrimidine-3-carboxylic acid hydrochloride], the pIC50 is 7.34. The same measure for `CC(C)CNC(=O)c1cnn2c(C3CCNCC3)cc(=O)[nH]c12` [Example 21, N-Isobutyl-5-oxo-7-(piperidin-4-yl)-4,5-dihydropyrazolo[1,5-a]pyrimidine-3-carboxamide hydrochloride]: 7.85; for `O=C(NCc1ccccc1)c1cnn2c(C3CCNCC3)cc(=O)[nH]c12` [Example 22, N-Benzyl-5-oxo-7-(piperidin-4-yl)-4,5-dihydropyrazolo[1,5-a]pyrimidine-3-carboxamide hydrochloride]: 7.89; for `O=c1cc(C2CCNCC2)n2nc(C(F)(F)F)cc2[nH]1` [Example 24, 7-(Piperidin-4-yl)-2-(trifluoromethyl)pyrazolo[1,5-a]pyrimidin-5(4H)-one hydrochloride]: 7.23. The same measure for `O=c1cc(C2CCNCC2)n2nc(-c3cccs3)cc2[nH]1` [Example 25, 7-(Piperidin-4-yl)-2-(2-thienyl)pyrazolo[1,5-a]pyrimidin-5(4H)-one hydrochloride]: 6.80; for `O=c1cc(C2CCNCC2)n2nc(C3CC3)cc2[nH]1` [Example 26, 2-Cyclopropyl-7-(piperidin-4-yl)pyrazolo[1,5-a]pyrimidin-5(4H)-one hydrochloride]: 6.51; for `O=c1cc(C2CCNCC2)n2nc(-c3ccc(F)cc3)cc2[nH]1` [Example 27, 2-(4-Fluorophenyl)-7-(piperidin-4-yl)pyrazolo[1,5-a]pyrimidin-5(4H)-one hydrochloride]: 6.77. The same measure for `COC(=O)c1cc2[nH]c(=O)cc(C3CCNCC3)n2n1` [Example 28, Methyl 5-oxo-7-(piperidin-4-yl)-4,5-dihydropyrazolo[1,5-a]pyrimidine-2-carboxylate]: 6.96; for `O=c1cc(C2CCNCC2)n2nc(-c3ccccc3)c(Br)c2[nH]1` [Example 29, 3-Bromo-2-phenyl-7-(piperidin-4-yl)pyrazolo[1,5-a]pyrimidin-5(4H)-one hydrochloride]: 7.70; for `O=c1cc(C2CCNCC2)n2nc3c(c2[nH]1)CCC3` [Example 30, 4-(Piperidin-4-yl)-1,7,8,9-tetrahydro-2H-cyclopenta[3,4]pyrazolo[1,5-a]pyrimidin-2-one hydrochloride]: 6.70. As to `Cc1noc(-c2cnn3c(C4CCNCC4)cc(=O)[nH]c23)n1` [Example 32, 3-(3-Methyl-1,2,4-oxadiazol-5-yl)-7-(piperidin-4-yl)pyrazolo[1,5-a]pyrimidin-5(4H)-one hydrochloride], the negative-log IC50 (pIC50) was 7.82.

Turning to `CCCc1noc(-c2cnn3c(C4CCNCC4)cc(=O)[nH]c23)n1` [Example 34, 7-(Piperidin-4-yl)-3-(3-propyl-1,2,4-oxadiazol-5-yl)pyrazolo[1,5-a]pyrimidin-5(4H)-one hydrochloride], the pIC50 was 7.92. The value for `O=c1cc(C2CCNCC2)n2ncc(-c3nc(-c4ccccc4)no3)c2[nH]1` [Example 35, 3-(3-Phenyl-1,2,4-oxadiazol-5-yl)-7-(piperidin-4-yl)pyrazolo[1,5-a]pyrimidin-5(4H)-one hydrochloride] was 7.82; that for `Cc1ccc(S(C)(=O)=NC(=O)c2cnn3c(C4CCNCC4)cc(=O)[nH]c23)cc1` (stereo not shown) [Example 36, N-[Methyl(4-methylphenyl)oxido-lambda^6-sulfanylidene]-5-oxo-7-(piperidin-4-yl)-4,5-dihydropyrazolo[1,5-a]pyrimidine-3-carboxamide hydrochloride] was 7.55. Molecule `O=C(N=S1(=O)CCOCC1)c1cnn2c(C3CCNCC3)cc(=O)[nH]c12` [Example 37, N-(4-Oxido-1,4-lambda^4-oxathian-4-ylidene)-5-oxo-7-(piperidin-4-yl)-4,5-dihydropyrazolo[1,5-a]pyrimidine-3-carboxamide hydrochloride] showed a pIC50 of 7.54. The value for `CCOC(=O)c1c(-c2ccccc2)nn2c(C3CCNCC3)cc(=O)[nH]c12` [Example 38, Ethyl 5-oxo-2-phenyl-7-(piperidin-4-yl)-4,5-dihydropyrazolo[1,5-a]pyrimidine-3-carboxylate trifluoroacetate] was 7.74. As to `Cc1ccc(-c2noc(-c3cnn4c(C5CCNCC5)cc(=O)[nH]c34)n2)cc1` [Example 39, 3-[3-(4-Methylphenyl)-1,2,4-oxadiazol-5-yl]-7-(piperidin-4-yl)pyrazolo[1,5-a]pyrimidin-5 (4H)-hydrochloride], the pIC50 is 7.57. `C[C@H]1C[C@H](c2cc(=O)[nH]c3c(Cl)cnn23)CCN1` [Example 40, (−)-trans-3-Chloro-7-(2-methylpiperidin-4-yl)pyrazolo[1,5-a]pyrimidin-5(4H)-one hydrochloride] gave a pIC50 of 7.85.

`NC(=O)c1c(-c2ccccc2)nn2c(C3CCNCC3)cc(=O)[nH]c12` [Example 41, 5-Oxo-2-phenyl-7-(piperidin-4-yl)-4,5-dihydropyrazolo[1,5-a]pyrimidine-3-carboxamide trifluoroacetate]: the pIC50 is 7.72. The value for `O=C(c1c(-c2ccccc2)nn2c(C3CCNCC3)cc(=O)[nH]c12)N1CCOCC1` [Example 43, 3-(Morpholin-4-ylcarbonyl)-2-phenyl-7-(piperidin-4-yl)pyrazolo[1,5-a]pyrimidin-5(4H)-one trifluoroacetate] was 7.57; that for `CC(C)CNC(=O)c1c(-c2ccccc2)nn2c(C3CCNCC3)cc(=O)[nH]c12` [Example 44, trifluoroacetate] was 7.64; that for `O=C(O)c1cc2[nH]c(=O)cc(C3CCNCC3)n2n1` [Example 46, 5-Oxo-7-(piperidin-4-yl)-4,5-dihydropyrazolo[1,5-a]pyrimidine-2-carboxylic acid hydrochloride] was 7.16.

Values taken from patent US10118930B2, “Piperidinylpyrazolopyrimidinones and their use” (BAYER PHARMA AKTIENGESELLSCHAFT, priority 2015, dated 2018).
